Laboratory results taken from patent publication US12465607B2, “ALK inhibitors for treatment of ALK-negative cancer and plasma cell-mediated diseases” (UNIVERSITETET I OSLO, priority 2019, dated 2025).
“Also recorded” adds a separate entry of the source. One block for each compound: values may come before it.

Experiments:
[1] = system: multiple myeloma cells; assay: Cytotoxic activity against multiple myeloma cells (FIG. 4, L363, AMO-1 and bortezomib-resistant clones); format: cell-based, human; conditions: FIG. 4, 24 hr treatment
Protocol: (§1) The Results are the means of 3 independent experiments. Note the concentration-dependent reduction of viability of myeloma cells.
(§2) The cell lines used were the human multiple myeloma cell lines L363 (DSMZ catalogue number ACC 49), AMO-1 (DSMZ catalogue number ACC 538) and ARH-77 (ATCC CRL-1621).
(§3) Multiple myeloma cell lines were maintained in RPMI-1640 culture medium (Sigma-Aldrich, Buchs, Switzerland) supplemented with 10% heat-inactivated fetal bovine serum (FBS), 100 μg/ml streptomycin and 100 U/ml penicillin/streptomycin (Sigma-Aldrich, Buchs, Switzerland). The bortezomib-resistant cell lines were established and maintained from their parental cell line by continuous drug exposure>12 months to their parental cell lines (Soriano et al, Leukemia 30: 2198-2207, 2016).
(§4) The viability of the cells was determined 24 hr post treatment using Cell Counting Kit-8 (CCK-8; MedChemExpress, NJ, USA) according to the manufacturer's instructions.

[2] = system: CLL cells; assay: Viability of activated CLL cells from patients, CellTiter-Glo 72 h (IC50, DSS); format: cell-based, human; conditions: CLL cells from 12 new patients
Protocol: CLL cells from patients were stimulated by adherent murine L cells expressing CD40L, BAFF and April for 24 h. The L cells were then removed by immuno-magnetic separation. Washed CLL cells were plated into 384-well plate format (10,000 cells/well) and tested against crizotinib at 5 concentrations in 10-fold dilutions (plates dispensed by an Echo acoustic dispenser, LabCyte Inc., San Jose, CA, USA). The plate was incubated in a humidified environment at 37° C. and 5% CO2. Cell viability was determined after 72 h using the CellTiter-Glo (Promega, Madison, WI, USA) ATP assay according to the manufacturer's instructions and using an Envision 2102 Multilabel reader (PerkinElmer, Shelton, CT, USA). Relative percentage cell viability was calculated by normalising luminescence units for each well to negative (DMSO 0.1%) and positive (100 μM BzCl) control wells. Curve fitting was conducted to obtain IC50 values.
Quantitative scoring of differential drug sensitivity for individual drugs was calculated as drug sensitivity scores (DSS values, Yadav et al., Scientific Reports 4: 5193, 2014). DSS values were calculated for integrated multiple dose-response relationships in high-throughput compound testing as shown.

[3] = system: human L363-BTZ (bortezomib-resistant) myeloma cells; assay: Intrafemoral L363-BTZ luciferase xenograft in NSG mice; format: in vivo; conditions: 7 days treatment from day 10; crizotinib 50 mg/kg orally daily; bortezomib 1 mg/kg i.v. twice
Protocol: In this figure, immunocompromised NSG mice were intrafemorally injected with human L363-BTZ (bortezomib-resistant) myeloma cells. The cells were equipped with luciferase for in vivo monitoring of disease progression. After 10 days, mice were treated with bortezomib i.v. twice over a 7 day period and with crizotinib orally every day over the 7 day period. The images on the left show examples of tumour load in the different groups at days 4 and 7 of treatment (days 14 and 17 post tumour inoculation), and the graph on the right depicts the average luciferase signal for each mouse in each cohort (n=4) normalised to day 0 of the treatment (day 10 post tumour inoculation). Statistical significance between the groups was assessed with two-way ANOVA and between the time-points using one-way ANOVA with Tukey post-test.
NSG (NOD-scid IL2Rgamma^null) mice were obtained from The Jackson Laboratory (No. 005557, CA, USA) and kept in isolated ventilated cages with food ad libitum. Age matched (6-8 weeks old) mice were injected with 0.5×10^5 L363-BTZ_Luc+_TdTomato+ multiple myeloma cells (equipped with luciferase vector for monitoring, obtained from Addgene: #72486) into the right femur. Tumour growth was monitored twice over the week following luciferin injection (150 mg/kg, obtained from BioVision, CA, USA). […]

[4] = system: Hepatocellular carcinoma cells (HepG2); assay: Apoptosis (cleaved caspase 3 immunoblot) in HepG2 cells with doxorubicin; format: cell-based; conditions: 5 μM doxorubicin alone, 24 h
Protocol: In B, Hepatocellular carcinoma cells (HepG2) were treated with DMSO (untreated) or with increasing concentrations (1, 2 and 5 μM) of doxorubicin for 24 h and apoptosis was assessed by immunoblotting for cleaved caspase 3. […] Cells were also treated with the same concentrations of doxorubicin in the presence of 1 μM crizotinib for 24 h.
(§5) Cells were washed twice with PBS and collected in lysis buffer (50 mM Tris-HCl, pH7.4; 1 mM EDTA, 100 mM NaCl, 0.1% SDS and 1% NP-40) supplemented with proteinase and phosphatase inhibitor (Pierce Protease and Phosphatase Inhibitor Mini Tablets, EDTA-free). Lysates were incubated on ice for 10 minutes followed by clearing centrifugation at 20,000×g at 4° C. for 10 min. Supernatants were transferred into fresh tubes and reducing loading buffer was added. Lysates were subjected to SDS-PAGE and transferred onto a nitrocellulose membrane using semi-dry transfer. The membrane was blocked (in ROTI buffer (Roth) or 5% milk in PBS with 0.1% tween) and probed with the appropriate primary antibodies. Subsequently membranes were incubated with horseradish peroxidase-conjugated secondary antibody. Immunoblots were developed using a chemiluminescence reagent (ECL clarity, BioRad) and imaged using ChemiDoc (BioRad).

[5] = system: AMO-1-BTZ; assay: Myeloma cell line viability, CCK-8, 24 hr; format: cell-based; conditions: Homo sapiens, 24 hr treatment
Protocol: as §1, §2, §3, §4

[6] = system: AMO-1; assay: Myeloma cell line viability, CCK-8, 24 hr; format: cell-based; conditions: Homo sapiens, AMO1; AMO-1, 24 hr treatment
Protocol: as §1, §2, §3, §4

[7] = system: HeLa cells; assay: ER-to-Golgi trafficking in HeLa cells (ERES staining, mannosidase-II RUSH reporter); format: cell-based; conditions: RUSH reporter 20 min after biotin
Protocol: (§6) In A, HeLa cells expressing flag-tagged LTK were treated with 1 μM of crizotinib or ceritinib for 30 minutes. Afterwards, cells were lysed and immunoblotted against phosphorylated LTK, which is used as a surrogate for the active form of LTK. […] B, HeLa cells were treated with 1 μM ceritinib for 30 minutes followed by fixation and staining for Sec31A to label ERES. Cells were imaged by confocal microscopy and ERES were counted using ImageJ. C, HeLa cells stably expressing mCherry-tagged mannosidase-II RUSH reporter. Cells were treated with biotin to release the reporter from the ER. After 20 min, a time point where most of the reporter has reached the Golgi, cells were fixed and immunostained for GM130 to label the Golgi apparatus. […] D, IgA secreting AMO-1 cells were treated for 3 h with the indicated doses of crizotinib and the amount of IgA in cell supernatant was determined by ELISA.

[8] = molecular target: T1, LTK (Homo sapiens, UniProt P29376); assay: LTK inhibition: immunoblot of phosphorylated LTK in cells expressing LTK; format: cell-based; conditions: FIG. 5A: HeLa cells expressing flag-tagged LTK, 1 μM, 30 minutes
T1 construct: expressed in transfected cells; host or cells: HeLa cells
T1 sequence (P29376 17-864): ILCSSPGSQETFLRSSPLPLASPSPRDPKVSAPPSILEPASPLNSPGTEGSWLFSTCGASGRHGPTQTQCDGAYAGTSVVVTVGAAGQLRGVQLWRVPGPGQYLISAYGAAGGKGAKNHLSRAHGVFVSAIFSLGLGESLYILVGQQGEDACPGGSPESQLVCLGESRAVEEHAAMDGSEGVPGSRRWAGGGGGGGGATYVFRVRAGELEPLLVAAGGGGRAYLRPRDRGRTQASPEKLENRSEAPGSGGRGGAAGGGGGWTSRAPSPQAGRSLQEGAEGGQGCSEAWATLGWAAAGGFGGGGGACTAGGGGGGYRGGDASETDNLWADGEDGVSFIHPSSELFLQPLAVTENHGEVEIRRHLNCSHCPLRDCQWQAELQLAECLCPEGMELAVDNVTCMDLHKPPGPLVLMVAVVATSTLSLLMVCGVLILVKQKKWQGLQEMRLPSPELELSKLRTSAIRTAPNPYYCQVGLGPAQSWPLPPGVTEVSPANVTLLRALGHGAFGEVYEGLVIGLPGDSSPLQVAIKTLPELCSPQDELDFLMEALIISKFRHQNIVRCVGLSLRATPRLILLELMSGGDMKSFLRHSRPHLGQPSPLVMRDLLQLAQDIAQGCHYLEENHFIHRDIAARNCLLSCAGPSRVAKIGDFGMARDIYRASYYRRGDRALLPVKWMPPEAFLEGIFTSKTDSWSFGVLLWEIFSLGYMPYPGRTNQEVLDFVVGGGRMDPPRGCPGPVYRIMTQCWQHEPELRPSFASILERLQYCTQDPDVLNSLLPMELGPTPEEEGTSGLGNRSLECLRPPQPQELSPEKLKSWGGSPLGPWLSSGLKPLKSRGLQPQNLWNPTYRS
Protocol: as §5

[9] = system: AMO-1 cells; assay: IgA secretion by AMO-1 cells, ELISA of supernatant; format: cell-based, human; conditions: 3 h
Protocol: as §6
Right: Secretion of Ig is reduced by ceritinib. The plasma cell line AMO-1 was washed and added to wells (10^6 cells/well) in the presence of titred ceritinib for 3 h. Supernatants were assayed for IgA secreted by the AMO-1 cells by use of the Human IgA ELISA Kit (Abcam, Cambridge, UK).
1×10^6/ml IgA-secreting AMO-1 cells were seeded in fresh medium with increasing doses of compounds of interest for 3 hr. […]

[10] = system: L363-BTZ; assay: Myeloma cell line viability, CCK-8, 24 hr; format: cell-based, human; conditions: Homo sapiens; L363-BTZ, 24 hr treatment
Protocol: as §1, §2, §3, §4

[11] = system: L363; assay: Myeloma cell line viability, CCK-8, 24 hr; format: cell-based, human; conditions: Homo sapiens, L-363; L363, 24 hr treatment
Protocol: as §1, §2, §3, §4

[12] = system: plasma cells; assay: Viability of in vitro-generated IRF4/BLIMP1 double positive end stage plasma cells; format: cell-based; conditions: Homo sapiens, B-cell, 120 h; B-cells stimulated 5 days, inhibitor day 5-7
Excerpt: Negatively selected normal B-cells from blood bank donors were stimulated with sCD40L, IL-21, IL-4 for 5 days. This protocol allows generation of 10-20% end differentiated plasma cells that express IRF4 and BLIMP1. From day 5-7, cells were exposed to titred crizotinib in A, or ceritinib in B.
In A and B, IRF4 vs BLIMP1 in gated CD19^+ B cells is shown. IRF4 and BLIMP1 double positive cells represent end stage plasma cells. Such plasma cells are gated (blue elliptic region) and percent plasma cells are shown. The conditions without inhibitor (0) and with linear Alk-inhibitor (crizotinib, A; ceritinib, B) are shown for concentrations 0.01 μM, 0.1 μM, 1 μM, 10 μM and 100 μM.

Structure (SMILES): CN1CCN(c2ccc(C(=O)Nc3n[nH]c4ccc(Cc5cc(F)cc(F)c5)cc34)c(NC3CCOCC3)c2)CC1 [entrectinib, N-[5-[(3,5-difluorophenyl)methyl]-1H-indazol-3-yl]-4-(4-methylpiperazin-1-yl)-2-(oxan-4-ylamino)benzamide]
cytotoxic activity against multiple myeloma cells [1]: cytotoxic activity | patients with susceptible CLL cells, cut-off DSS=10 [2]: 12/12

Structure (SMILES): C[C@H]1Oc2cc(cnc2N)-c2c(nn(C)c2C#N)CN(C)C(=O)c2ccc(F)cc21 [lorlatinib]
cytotoxic activity against multiple myeloma cells [1]: did not efficiently kill myeloma cells | patients with susceptible CLL cells, cut-off DSS=10 [2]: 0/12

Structure (SMILES): CC(C)C[C@H](NC(=O)[C@H](Cc1ccccc1)NC(=O)c1cnccn1)B(O)O [bortezomib]
tumour burden (luciferase signal) [3]: confirmed proteasome inhibitor resistance

Structure (SMILES): C[C@@H]1CN(C(=O)c2ccc(NC(=O)c3cc(O[C@H](C)c4c(Cl)ccc(F)c4Cl)c(N)nn3)cc2)C[C@H](C)N1 [ensartinib, 6-amino-5-[(1R)-1-(2,6-dichloro-3-fluorophenyl)ethoxy]-N-[4-[(3R,5S)-3,5-dimethylpiperazine-1-carbonyl]phenyl]pyridazine-3-carboxamide]
cytotoxic activity against multiple myeloma cells [1]: cytotoxic activity | patients with susceptible CLL cells, cut-off DSS=10 [2]: 11/12

Structure (SMILES): COc1cccc2c1C(=O)c1c(O)c3c(c(O)c1C2=O)C[C@@](O)(C(=O)CO)C[C@@H]3O[C@H]1C[C@H](N)[C@H](O)[C@H](C)O1 [doxorubicin]
cell death (cleaved caspase 3) [4]: only weakly induces cell death

Structure (SMILES): COc1cc(N2CCC(N3CCN(C)CC3)CC2)ccc1Nc1ncc(Cl)c(Nc2ccccc2P(C)(C)=O)n1 [brigatinib, 5-chloro-4-N-(2-dimethylphosphorylphenyl)-2-N-[2-methoxy-4-[4-(4-methylpiperazin-1-yl)piperidin-1-yl]phenyl]pyrimidine-2,4-diamine]
patients with susceptible CLL cells, cut-off DSS=10 [2]: 4/12

IC50 [5]: 2770 nM | IC50 [6]: 2090 nM | inhibition of LTK [8]: inhibit LTK | IC50 [10]: 790 nM | IC50 [11]: 1030 nM
Structure (SMILES): Cc1cc(Nc2ncc(Cl)c(Nc3ccccc3S(=O)(=O)C(C)C)n2)c(OC(C)C)cc1C1CCNCC1 [ceritinib, 5-chloro-2-N-(5-methyl-4-piperidin-4-yl-2-propan-2-yloxyphenyl)-4-N-(2-propan-2-ylsulfonylphenyl)pyrimidine-2,4-diamine]
ER-to-Golgi trafficking [7]: inhibits ER-to-Golgi trafficking | immunoglobulin (IgA) secretion [9]: reduced; also recorded: inhibits immunoglobulin secretion | cytotoxic activity against multiple myeloma cells [1]: cytotoxic activity | IC50 [12]: < 1 nM | patients with susceptible CLL cells, cut-off DSS=10 [2]: 11/12

IC50 [5]: 17600 nM | IC50 [6]: 13300 nM | IC50 [10]: 6220 nM | IC50 [11]: 6120 nM
Structure (SMILES): CCc1cc2c(cc1N1CCC(N3CCOCC3)CC1)C(C)(C)c1[nH]c3cc(C#N)ccc3c1C2=O [alectinib, 9-ethyl-6,6-dimethyl-8-(4-morpholin-4-ylpiperidin-1-yl)-11-oxo-5H-benzo[b]carbazole-3-carbonitrile]
cytotoxic activity against multiple myeloma cells [1]: cytotoxic activity
